Laboratory results taken from patent US20200237766A1, “PKM2 ACTIVATORS IN COMBINATION WITH REACTIVE OXYGEN SPECIES FOR TREATMENT OF CANCER” (TOLERO PHARMACEUTICALS, INC., priority 2017, published 2020).
Read-outs that look alike come from different tables or passages of the source.

Biological target: PKM2 (Homo sapiens, UniProt P14618)
Experiment: PKM2 activation biochemical assay (AC50 / max. response vs fructose 1,6-bisphosphate)
Conditions: for Max. Resp. (%): % maximum response in a biochemical assay as compared with Fructose 1,6-bisphosphate
[1] = biochemical assay, read-out: PKM2 AC50

Chain of PKM2 (P14618 whole entry): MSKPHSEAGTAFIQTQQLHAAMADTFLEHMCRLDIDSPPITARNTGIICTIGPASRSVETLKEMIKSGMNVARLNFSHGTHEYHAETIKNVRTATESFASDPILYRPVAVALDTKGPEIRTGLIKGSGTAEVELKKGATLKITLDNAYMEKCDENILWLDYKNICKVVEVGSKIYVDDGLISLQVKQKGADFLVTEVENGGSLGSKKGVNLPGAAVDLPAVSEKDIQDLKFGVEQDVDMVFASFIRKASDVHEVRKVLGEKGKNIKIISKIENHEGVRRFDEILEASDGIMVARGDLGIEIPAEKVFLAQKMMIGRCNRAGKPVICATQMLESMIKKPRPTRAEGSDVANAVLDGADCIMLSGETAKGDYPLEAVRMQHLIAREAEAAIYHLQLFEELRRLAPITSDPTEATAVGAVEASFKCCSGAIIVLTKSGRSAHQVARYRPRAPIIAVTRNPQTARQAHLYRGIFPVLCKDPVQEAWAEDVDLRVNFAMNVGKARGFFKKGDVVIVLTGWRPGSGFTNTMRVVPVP

CCN(CC)CCCN(Cc1ccccc1Cl)C(=O)c1cc(C(F)(F)F)n[nH]1 [Compound 185]
Max. Resp. (%): 53%
AC50 [1]: 1750 nM

O=C(c1cc(C(F)(F)F)n[nH]1)N(CCN1CCCCCC1)Cc1ccc(O)cc1Cl [Compound 194]
Max. Resp. (%): 100%
AC50 [1]: 43 nM

O=C(c1cc(C(F)(F)F)n[nH]1)N(CCC1CCSCC1)Cc1ccccc1F [Compound 79]
Max. Resp. (%): 95%
AC50 [1]: 1190 nM

O=C(c1cc(C(F)(F)F)n[nH]1)N(CCN1CCCCCC1)Cc1c(Cl)cccc1[N+](=O)[O-] [Compound 211]
Max. Resp. (%): 100%
AC50 [1]: 123 nM

Nc1cc(C(=O)N(Cc2ccc(O)cc2F)CC2CCC2)[nH]n1 [Compound 3]
Max. Resp. (%): 45%
AC50 [1]: 43800 nM

CC1CCCN(CCN(Cc2ccccc2Cl)C(=O)c2cc(C(F)(F)F)n[nH]2)C1 (stereo not drawn) [Compound 191]
Max. Resp. (%): 100%
AC50 [1]: 29 nM

CCOCCN(Cc1ccc(O)cc1F)C(=O)c1cc(C(F)(F)F)n[nH]1 [Compound 24]
Max. Resp. (%): 100%
AC50 [1]: 210 nM

CN(C)CCCN(Cc1ccccc1Cl)C(=O)c1cc(C(F)(F)F)n[nH]1 [Compound 186]
Max. Resp. (%): 100%
AC50 [1]: 375 nM

Cn1cc(C(=O)c2cccc(Cl)c2Cl)cc1C(N)=O [CA2]
AC50 [1]: 17000 nM

O=C(c1cc(C(F)(F)F)n[nH]1)N(CCN1CCCC1)Cc1c(F)cccc1Cl [Compound 177]
Max. Resp. (%): 100%
AC50 [1]: 180 nM

CCCN(CC)CCN(Cc1ccccc1Cl)C(=O)c1cc(C(F)(F)F)n[nH]1 [Compound 209]
Max. Resp. (%): 100%
AC50 [1]: 52 nM

O=C(c1cc(C(F)(F)F)n[nH]1)N(CCC1CCS(=O)(=O)C1)Cc1ccncc1 (stereo not drawn) [Compound 89]
Max. Resp. (%): 35%
AC50 [1]: 58000 nM

CCN(CC)CCN(Cc1cc(N)ccc1Cl)C(=O)c1cc(C(F)(F)F)n[nH]1 [Compound 183]
Max. Resp. (%): 100%
AC50 [1]: 185 nM

CCN(CC)CCN(Cc1cccc(Cl)c1Cl)C(=O)c1cc(C(F)(F)F)n[nH]1 [Compound 167]
Max. Resp. (%): 100%
AC50 [1]: 186 nM

CN1CCN(CCN(Cc2ccccc2F)C(=O)c2cc(C(F)(F)F)n[nH]2)CC1 [Compound 103]
AC50: 37000 nM
Max. Resp. (%): 42%

O=C(c1cc(C(F)(F)F)n[nH]1)N(CCC1CCSCC1)Cc1ccccc1Cl [Compound 73]
Max. Resp. (%): 79%
AC50 [1]: 1340 nM

Nc1cccc(CN(CCN2CCCCCC2)C(=O)c2cc(C(F)(F)F)n[nH]2)c1F [Compound 216]
Max. Resp. (%): 100%
AC50 [1]: 117 nM

O=C(CCSC(=S)NCc1cccnc1)c1ccccc1 [PMA8]
Max. Resp. (%): 24%
AC50 [1]: 7640 nM

O=C(c1cc(C(F)(F)F)n[nH]1)N(Cc1ccc(O)cc1F)CC1CCC1 [Compound 244]
Max. Resp. (%): 107%
AC50 [1]: 62 nM

CCN(CC)CCN(Cc1cc(Cl)ccc1Cl)C(=O)c1cc(C(F)(F)F)n[nH]1 [Compound 168]
Max. Resp. (%): 100%
AC50 [1]: 97 nM

O=C(c1cc(Cl)n[nH]1)N(Cc1cccc2[nH]c(=O)sc12)CC1CCC1 [Compound 9]
Max. Resp. (%): 80%
AC50 [1]: 15400 nM

Cc1csc2nc(Cn3cnc4ccccc43)cc(=O)n12 [PP16]
AC50 [1]: 127 nM

O=C(c1cc(C(F)(F)F)n[nH]1)N(CCC1CC1)Cc1ccccc1F [Compound 149]
Max. Resp. (%): 100%
AC50 [1]: 2000 nM

COc1cccc(NS(=O)(=O)c2cc3c(cc2Cl)NC(=O)CO3)c1 [PP20]
Max. Resp. (%): 108%
AC50 [1]: 153 nM

O=C(c1cc(C(F)(F)F)n[nH]1)N(Cc1ccccc1Cl)CC1CCS(=O)(=O)CC1 [Compound 72]
Max. Resp. (%): 22%
AC50 [1]: 19700 nM

O=C(c1cc(C(F)(F)F)n[nH]1)N(CCC1CCS(=O)(=O)C1)Cc1cc(F)ccc1F (stereo not drawn) [Compound 70]
Max. Resp. (%): 91%
AC50 [1]: 884 nM

CCN(CC)CCN(Cc1cc(F)ccc1Cl)C(=O)c1cc(C(F)(F)F)n[nH]1 [Compound 171]
AC50: 88 nM
Max. Resp. (%): 100%

CCOCCN(Cc1ccccc1F)C(=O)c1cc(C(F)(F)F)n[nH]1 [Compound 30]
Max. Resp. (%): 72%

CCN(CC)CCN(Cc1ccc(F)cc1Cl)C(=O)c1cc(C(F)(F)F)n[nH]1 [Compound 170]
AC50: 505 nM
Max. Resp. (%): 100%

O=C(c1cc(C(F)(F)F)n[nH]1)N(CCN1CCCC(O)C1)Cc1ccccc1Cl (stereo not drawn) [Compound 220]
Max. Resp. (%): 100%
AC50 [1]: 465 nM

O=C(CCSC(=S)NCc1cccnc1)c1ccc(O)cc1 [PMA11]
Max. Resp. (%): 76%
AC50 [1]: 6230 nM

O=C(c1cc(C(F)(F)F)n[nH]1)N(CCN1CCS(=O)(=O)CC1)Cc1c(F)cccc1F [Compound 109]
Max. Resp. (%): 94%
AC50 [1]: 4200 nM

Cc1ccc2nc(Cn3c(Cc4ccccc4)nc4ccccc43)cc(=O)n2c1 [PP1]
Max. Resp. (%): 148%
AC50 [1]: 3500 nM

O=C(c1cc(C(F)(F)F)n[nH]1)N(Cc1ccc(O)cc1F)CC1COC1 [Compound 15]
Max. Resp. (%): 102%
AC50 [1]: 150 nM

Nc1cccc(Cl)c1CN(CCN1CCC(F)CC1)C(=O)c1cc(C(F)(F)F)n[nH]1 [Compound 238]
Max. Resp. (%): 100%
AC50 [1]: 116 nM

O=C(c1cc(C(F)(F)F)n[nH]1)N(CCC1CCOC1)Cc1ccccc1F (stereo not drawn) [Compound 26]
Max. Resp. (%): 99%
AC50 [1]: 377 nM

O=C(c1cc(C(F)(F)F)n[nH]1)N(CCO)Cc1ccc(O)cc1F [Compound 137]
Max. Resp. (%): 70%
AC50 [1]: 6200 nM

CS(=O)(=O)N1CCCC(CCN(Cc2ccccc2Cl)C(=O)c2cc(C(F)(F)F)n[nH]2)C1 (stereo not drawn) [Compound 228]
Max. Resp. (%): 100%
AC50 [1]: 2000 nM

O=C(c1cc(C(F)(F)F)n[nH]1)N(CCC1CCOC1)Cc1ccc(O)cc1F (stereo not drawn) [Compound 34]
Max. Resp. (%): 109%
AC50 [1]: 77 nM

O=C(c1cc(C(F)(F)F)n[nH]1)N(CCC1CCOC1)Cc1ccccc1Cl (stereo not drawn) [Compound 43]
AC50: 1330 nM
Max. Resp. (%): 110%

CCN(CC)CCN(Cc1cccc2[nH]ccc12)C(=O)c1cc(C(F)(F)F)n[nH]1 [Compound 161]
Max. Resp. (%): 100%
AC50 [1]: 76 nM

O=C(c1cc(C(F)(F)F)n[nH]1)N(CCC1CCOCC1)Cc1ccccc1Cl [Compound 32]
Max. Resp. (%): 107%
AC50 [1]: 1000 nM

CCN1CCC(CCN(Cc2c(Cl)cccc2Cl)C(=O)c2cc(C(F)(F)F)n[nH]2)CC1 [Compound 105]
Max. Resp. (%): 71%
AC50 [1]: 3270 nM

O=C(c1cc(C(F)(F)F)n[nH]1)N(Cc1cccc(F)c1O)CC1CCC1 [Compound 136]
Max. Resp. (%): 100%
AC50 [1]: 380 nM

O=C(c1cc(C(F)(F)F)n[nH]1)N(CCN1CCCCC1)Cc1ccccc1Cl [Compound 173]
Max. Resp. (%): 100%
AC50 [1]: 66 nM

O=C(c1cc(C(F)(F)F)n[nH]1)N(Cc1cccc2c1CCN2)CC1CCC1 [Compound 14]
Max. Resp. (%): 81%

CO[C@H]1CC[C@H](N(Cc2cccc(F)c2)C(=O)c2cc(C(F)(F)F)n[nH]2)CC1 [Compound 48]
Max. Resp. (%): 80%
AC50 [1]: 8580 nM

O=C(c1cc(Cl)n[nH]1)N(CCC1CCS(=O)(=O)CC1)Cc1ccccc1F [Compound 81]
AC50: 1370 nM
Max. Resp. (%): 72%

O=C(c1cc(C(F)(F)F)n[nH]1)N(CCN1CCS(=O)(=O)CC1)Cc1ccccc1Cl [Compound 107]
Max. Resp. (%): 85%
AC50 [1]: 873 nM

O=C(c1cc(C(F)(F)F)n[nH]1)N(CCC1CCS(=O)(=O)C1)Cc1cncs1 (stereo not drawn) [Compound 93]
AC50: 49000 nM
Max. Resp. (%): 26%

O=C(c1cc(Cl)n[nH]1)N(Cc1ccncc1F)CC1CCC1 [Compound 116]
AC50 [1]: 38000 nM

CC1CCCC(C)N1CCN(Cc1ccccc1Cl)C(=O)c1cc(C(F)(F)F)n[nH]1 (stereo not drawn) [Compound 212]
Max. Resp. (%): 53%
AC50 [1]: 5810 nM

O=C(c1cc(C(F)(F)F)n[nH]1)N(Cc1ccccc1Cl)CC1CCCN1 (stereo not drawn) [Compound 232]
Max. Resp. (%): 85%
AC50 [1]: 320 nM

COc1ccccc1C(=O)CCSC(=S)NCc1cccnc1 [PMA18]
Max. Resp. (%): 88%
AC50 [1]: 3930 nM

CO[C@H]1CC[C@H](N(Cc2ccccc2Cl)C(=O)c2cc(C(F)(F)F)n[nH]2)CC1 [Compound 52]
Max. Resp. (%): 100%
AC50 [1]: 879 nM

Nc1ccc(CN(CCN2CCCCCC2)C(=O)c2cc(C(F)(F)F)n[nH]2)c(Cl)c1 [Compound 207]
Max. Resp. (%): 75%
AC50 [1]: 170 nM

COCCCN(Cc1ccccc1Cl)C(=O)c1cc(C(F)(F)F)n[nH]1 [Compound 31]
Max. Resp. (%): 82%
AC50 [1]: 9590 nM

CC(c1ccccc1)N(CC1CCC1)C(=O)c1cc(C(F)(F)F)n[nH]1 (stereo not drawn) [Compound 5]
Max. Resp. (%): 106%
AC50 [1]: 4650 nM
